Results reported in patent US10542745B2, “Portable device for ex vivo stimulation of whole blood” (Hitachi Chemical Co., Ltd., priority 2010, dated 2020).

Experiments:
Assay type in all cases: cell-based
blood [1] = assay: Ex vivo stimulation of blood in strip wells, then 4° C. storage; ACTB, p21 and PUMA mRNA quantified; details: for levels of both p21 and PUMA after 3 days of post-stimulation storage: stored at 4° C. for 3 days after stimulation, higher Ct values
Experimental: (§1) Briefly, 96-well filterplates were assembled with leukocyte reduction membranes (Leukosorb; Pall) and placed over oligo(dT)-immobilized collection plates. 150 μL of 5 mmol/L Tris (pH 7.4) was applied to wet the filter membranes. After centrifugation at 120 g for 1 min at 4° C. to remove the Tris solution from the membranes, 50 μL of the stimulated whole blood samples was applied to each well and immediately centrifuged at 120 g for 2 min at 4° C. The wells were then washed once with 300 μL of phosphate-buffered saline. After centrifugation at 2000 g for 5 min at 4° C. to remove the saline solution, 60 μL of stock lysis buffer [5 g/L N-lauroylsarcosine, 4× standard saline citrate, 10 mmol/L Tris-HCl (pH 7.4), 1 mmol/L EDTA, 1 mL/L IGEPAL CA-630 (substitute of NP-40), 1.79 mol/L guanidine thiocyanate (all from Sigma)], supplemented with 10 mL/L 2-mercaptoethanol (Bio-Rad), 0.5 g/L proteinase K (Pierce), 0.1 g/L salmon sperm DNA (5 Prime Eppendorf/Brinkman), 0.1 g/L Escherichia coli tRNA (Sigma), 5 nmol/L each of the specific reverse primers, and 10^10 molecules/L of synthetic RNA34 (as external control), was added to each well of the filterplates. The plates were then incubated at 37° C. for 10 min, placed over oligo(dT)-immobilized collection microplates (GenePlate; RNAture), and centrifuged at 2000 g for 5 min at 4° C. After overnight storage at 4° C., the microplates were washed 3 times with 100 μL of plain lysis buffer and then 3 times with 150 μL of wash buffer [0.5 mol/L NaCl, 10 mmol/L Tris (pH 7.4) 1 mmol/L EDTA] at 4° C.
cDNA was synthesized directly in each well by addition of 30 μL of buffer containing 1× reverse transcription buffer [50 mM KCl, 10 mM Tris-HCl (pH 8.3), 5.5 mM MgCl2, 1 nL/μL Tween 20], 1.25 mM each deoxynucleoside triphosphate, 4 units of rRNasin, and 80 U of MMLV reverse transcriptase (Promega; without primers) and incubation at 37° C. for 2 h. From each 30-μL reaction, 4 μL of cDNA was transferred directly to 384-well PCR plates, and 5 μL of TaqMan universal master mixture (Applied Biosystems) and 1 μL of 5 μM each of the forward and reverse primers for each mRNA or beta-actin were added. PCR was carried out in a PRISM 7900HT (Applied Biosystems), with 1 cycle of 95° C. for 10 min followed by 45 cycles of 95° C. for 30 s, 55° C. for 30 s, and 60° C. for 1 min. Each gene was amplified in separate wells. The cycle threshold (Ct), i.e., the cycle at which certain amounts of PCR products (based on fluorescence) were generated, was determined with analytical software (SDS; Applied Biosystems). The ΔCt were determined by subtracting each Ct of PHA-treated sample from each Ct of PBS-treated control sample, and the fold increase was calculated by 2^-ΔCt.
In order to evaluate the stability of samples after stimulation, blood was stimulated with DNR (10 μM in final concentration), AraC (100 μM in final concentration), or PBS in strip wells for 4 hours at 37° C., and then stored at 4° C. for 0-3 days. After the 4° C. incubation, the samples were stored in a −80° C. freezer until analysis. These experimental conditions are designed to represent the possible conditions a sample would be exposed to during transport in the portable incubation devices described herein. Three mRNAs (ACTB, p21, and PUMA) were quantified as described above.

blood [2] = assay: IFNa2b stimulation of blood: vacuum tube vs multi-well strip, immediate vs delayed
Experimental: as §1, with “After overnight storage at 4° C., the microplates were washed 3 times with 100 μL of plain lysis buffer and then 3 times with 150 μL of wash buffer [0.5 mol/L NaCl, 10 mmol/L Tris (pH 7.4) 1 mmol/L EDTA] at 4° C.” left out
cDNA was synthesized directly in each well by addition of 30 μL of buffer containing 1× reverse transcription buffer [50 mM KCl, 10 mM Tris-HCl (pH 8.3), 5.5 mM MgCl2, 1 nL/μL Tween 20], 1.25 mM each deoxynucleoside triphosphate, 4 units of rRNasin, and 80 U of MMLV reverse transcriptase (Promega; without primers) and incubation at 37° C. for 2 h. […] The cycle threshold (Ct), i.e., the cycle at which certain amounts of PCR products (based on fluorescence) were generated, was determined with analytical software (SDS; Applied Biosystems). The ΔCt were determined by subtracting each Ct of PHA-treated sample from each Ct of PBS-treated control sample, and the fold increase was calculated by 2^-ΔCt. […]

blood [3] = assay: Time course of mRNA induction in blood at two incubation temperatures (ACTB, IL2, CXCL9); details: strip wells, 42° C. vs 37° C., 0-9 hours; FIGS. 12C and 12F
Experimental: Briefly, 96-well filterplates were assembled with leukocyte reduction membranes (Leukosorb; Pall) and placed over oligo(dT)-immobilized collection plates. 150 μL of 5 mmol/L Tris (pH 7.4) was applied to wet the filter membranes. After centrifugation at 120 g for 1 min at 4° C. to remove the Tris solution from the membranes, 50 μL of the stimulated whole blood samples was applied to each well and immediately centrifuged at 120 g for 2 min at 4° C. The wells were then washed once with 300 μL of phosphate-buffered saline. […]
(§2) cDNA was synthesized directly in each well by addition of 30 μL of buffer containing 1× reverse transcription buffer [50 mM KCl, 10 mM Tris-HCl (pH 8.3), 5.5 mM MgCl2, 1 nL/μL Tween 20], 1.25 mM each deoxynucleoside triphosphate, 4 units of rRNasin, and 80 U of MMLV reverse transcriptase (Promega; without primers) and incubation at 37° C. for 2 h. […] The cycle threshold (Ct), i.e., the cycle at which certain amounts of PCR products (based on fluorescence) were generated, was determined with analytical software (SDS; Applied Biosystems). The ΔCt were determined by subtracting each Ct of PHA-treated sample from each Ct of PBS-treated control sample, and the fold increase was calculated by 2^-ΔCt.
The time course of induction was also evaluated for two different incubation temperatures. […] ACTB, IL2, andCXCL9 mRNA were quantified.

blood [4] = assay: Induction of IL2 or CXCL9 after incubation in the portable device vs controlled incubators; details: FIGS. 13A and 13B
Experimental: FIGS. 13A and 13B depict a comparison of the level of induction of 1L2 or CXCL9 when stimulated by PHA or IFN alpha and then incubated in the portable device disclosed herein or in controlled incubators (at a variety of temperatures). […] This again represents the degree of flexibility in temperatures and times that can be used (as disclosed above) to perform ex vivo stimulation of blood samples.

blood [5] = assay: PHA stimulation of blood: PHA-containing collection tubes vs multi-well strip; details: 37° C. for 4 hours; FIGS. 9A-9D
Experimental: Blood collection tubes were manufactured as described above. Three tubes were stored at 4° C. (tubes PHA 4C #1, #2, and #3 in FIG. 9) or room temperature (PHA RT in FIG. 9) for 20 days. Blood was then drawn into 6 tubes: a control heparin tube, a plain heparin tube, and 4 PHA-containing tubes. The blood from the control heparin tube was stimulated (by PBS or PHA) in micro-plate tube strips (3 wells each, 60 μL blood/well). The remaining 5 tubes were incubated at 37° C. for 4 hours. Various mRNA were quantified by using SYBR green real time PCR as described previously (Mitsuhashi M et al. Clin. Chem. 52:634-642, 2006). […]
as §2

[6] = DNR 10 μM or AraC 100 μM final, 4 hours at 37° C., vs PBS
[7] = DNR 10 μM or AraC 100 μM final, 4 hours at 37° C., vs PBS, FIGS. 11A-11B
[8] = blood stored at 4° C. for 6 hours before ex vivo stimulation

COc1cccc2c1C(=O)c1c(O)c3c(c(O)c1C2=O)C[C@@](O)(C(C)=O)C[C@@H]3O[C@H]1C[C@H](N)[C@H](O)[C@H](C)O1 [DNR, daunorubicin]
PUMA expression induction (blood [1]; [6]): induced | beta actin mRNA induction (blood [1]; [7]): not induced | p21 mRNA induction (blood [1]; [7]): significant induction | levels of both p21 and PUMA after 3 days of post-stimulation storage (blood [1]): appear to have decreased

Nc1ccn([C@@H]2O[C@H](CO)[C@@H](O)[C@@H]2O)c(=O)n1 [AraC, cytarabine]
PUMA expression induction (blood [1]; [6]): induced | beta actin mRNA induction (blood [1]; [7]): not induced | levels of both p21 and PUMA after 3 days of post-stimulation storage (blood [1]): appear to have decreased

interferon alpha 2b [IFNa2b]
performance of IFNa2b tube vs conventional IFNa2b stimulation in strip wells (blood [2]; 2 hours at 37° C. immediately after blood draw, FIGS. 10A-10C): identical | CXCL10 induction (blood [2]; [8]): less induction | GIP2 induction (blood [2]; [8]): less induction | CXCL-9 induction (blood [3]): induced to a similar extent | CXCL9 induction, portable device vs controlled incubators (blood [4]): not significantly different

phytohemaglutinin [PHA]
mRNA (beta-actin, interferon gamma, interleukin 2, GM-CSF): stimulation in multi-well strip vs PHA-containing blood collection tubes (blood [5]): no differences were detected | IL2 induction, portable device vs controlled incubators (blood [4]): not significantly different
